Consider seven compounds from patent US11330821B2, “Herbicidal compounds” (Syngenta Participations AG, priority 2015, dated 2022).

The structures appear in SMILES notation.

Format in all cases: in vivo
Details in all cases: post-emergence spray, evaluated after 13 days

Assay [1] deals with Amaranthus retroflexus (AMARE). Put plainly: Post-emergence efficacy, Amaranthus retroflexus. The method, then: (§1) B1 Post-Emergence Efficacy
(§2) Seeds of a variety of test species are shown in standard soil in pots:—Solanum nigrum (SOLNI), Amaranthus retroflexus (AMARE), Setaria faberi (SETFA), Echinochloa crus-galli (ECHCG), Ipomoea hederacea (IPOHE), Lolium perenne (LOLPE). After 8 days cultivation (post-emergence) under controlled conditions in a glasshouse (at 24/16° C., day/night; 14 hours light; 65% humidity), the plants are sprayed with an aqueous spray solution derived from the formulation of the technical active ingredient in acetone/water (50:50) solution containing 0.5% Tween 20 (polyoxyethylene sorbitan monolaurate, CAS RN 9005-64-5). Compounds are applied at 1000 and 62.5 g/ha. The test plants are then grown in a glasshouse under controlled conditions in a glasshouse (at 24/16° C., day/night; 14 hours light; 65% humidity) and watered twice daily. After 13 days, the test is evaluated for the percentage damage caused to the plant. The biological activities are assessed on a five point scale (5=80-100%; 4=60-79%; 3=40-59%; 2=20-39%; 1=0-19%).

Assay [2] concerns Echinochloa crus-galli (ECHCG). Put plainly: Post-emergence efficacy, Echinochloa crus-galli. The method, then:
as §1, §2

A further assay deals with Setaria faberi (SETFA). Briefly: Post-emergence efficacy, Setaria faberi. The method, then:
as §1, §2

In assay [3] the test system is Ipomoea hederacea (IPOHE). Briefly: Post-emergence efficacy, Ipomoea hederacea. The method, then: as §1, §2
The next assay concerns Lolium perenne (LOLPE). Briefly: Post-emergence efficacy, Lolium perenne. The method, then: as §1, §2
Another assay relates to Solanum nigrum (SOLNI). Briefly: Post-emergence efficacy, Solanum nigrum. The method, then:
as §1, §2

With `Cc1nn(C)c(=O)c(-c2c(Cl)ccc(Cl)c2OCc2cccnc2)c1O` [Compound 1.02], the “AMARE percentage damage caused to the plant (five point scale)” value (shortened to “AMARE percentage damage caused”) in assay [1] (62.5 g/ha) and in assay [1] (1000 g/ha) was 4 (4=60-79%) throughout. Also, the “ECHCG percentage damage caused to the plant (five point scale)” value (“ECHCG percentage damage caused” below) is 3 (3=40-59%) in assay [2] (62.5 g/ha) and 4 (4=60-79%) in assay [2] (1000 g/ha). Also, the “SETFA percentage damage caused to the plant (five point scale)” value (from here on “SETFA percentage damage caused”) in the assay with Setaria faberi (SETFA) (62.5 g/ha) is recorded as 3 (3=40-59%); in the assay on Setaria faberi (SETFA) (1000 g/ha), 5 (5=80-100%). For the same compound, the “IPOHE percentage damage caused to the plant (five point scale)” value (shortened to “IPOHE percentage damage caused”) in assay [3] (62.5 g/ha) was 3 (3=40-59%); in assay [3] (1000 g/ha) it was 5 (5=80-100%). The “LOLPE percentage damage caused to the plant (five point scale)” value (“LOLPE percentage damage caused” below) in the assay on Lolium perenne (LOLPE) (62.5 g/ha) is reported as 2 (2=20-39%); with Lolium perenne (LOLPE) (1000 g/ha), 4 (4=60-79%). Moreover, the “SOLNI percentage damage caused to the plant (five point scale)” value (from here on “SOLNI percentage damage caused”) with Solanum nigrum (SOLNI) (62.5 g/ha) is listed as 4 (4=60-79%); in the assay with Solanum nigrum (SOLNI) (1000 g/ha), 5 (5=80-100%).
With `Cc1nn(C)c(=O)c(-c2c(Cl)ccc(Cl)c2OCc2ccncc2)c1O` [Compound 1.03], the “AMARE percentage damage caused” value is on record as 1 (1=0-19%) in assay [1] (62.5 g/ha) and 4 (4=60-79%) in assay [1] (1000 g/ha). Further, the “ECHCG percentage damage caused” value in assay [2] (62.5 g/ha) is reported as 2 (2=20-39%); in assay [2] (1000 g/ha), 5 (5=80-100%). Further, the “SETFA percentage damage caused” value is given as 1 (1=0-19%) in the assay with Setaria faberi (SETFA) (62.5 g/ha) and 5 (5=80-100%) in the assay on Setaria faberi (SETFA) (1000 g/ha). For the same compound, the “IPOHE percentage damage caused” value in assay [3] (62.5 g/ha) and in assay [3] (1000 g/ha) was 4 (4=60-79%) each time. The “LOLPE percentage damage caused” value with Lolium perenne (LOLPE) (62.5 g/ha) is recorded as 1 (1=0-19%); in the assay with Lolium perenne (LOLPE) (1000 g/ha), 4 (4=60-79%). The figures for the “SOLNI percentage damage caused” value with Solanum nigrum (SOLNI) (62.5 g/ha) and with Solanum nigrum (SOLNI) (1000 g/ha) were 4 (4=60-79%) and 5 (5=80-100%), respectively.
`Cc1nn(C)c(=O)c(-c2c(Cl)ccc(Cl)c2OCc2nccs2)c1O` [Compound 1.04]: the “AMARE percentage damage caused” value in assay [1] (62.5 g/ha) and in assay [1] (1000 g/ha) was 5 (5=80-100%) throughout. Besides, the “ECHCG percentage damage caused” value in assay [2] (62.5 g/ha) is 4 (4=60-79%); in assay [2] (1000 g/ha) it was 5 (5=80-100%). Further, the “SETFA percentage damage caused” value in the assay with Setaria faberi (SETFA) (62.5 g/ha) and with Setaria faberi (SETFA) (1000 g/ha) was 5 (5=80-100%) each time. The “IPOHE percentage damage caused” value in assay [3] (62.5 g/ha) and in assay [3] (1000 g/ha) was 5 (5=80-100%) throughout. The “LOLPE percentage damage caused” value in the assay on Lolium perenne (LOLPE) (62.5 g/ha) is on record as 3 (3=40-59%); with Lolium perenne (LOLPE) (1000 g/ha), 5 (5=80-100%). The “SOLNI percentage damage caused” value in the assay with Solanum nigrum (SOLNI) (62.5 g/ha) and with Solanum nigrum (SOLNI) (1000 g/ha) was 5 (5=80-100%) in each case.
Turning to `Cc1nn(C)c(=O)c(-c2c(Cl)ccc(Cl)c2OCc2cncs2)c1O` [Compound 1.06], the figures for the “AMARE percentage damage caused” value in assay [1] (62.5 g/ha) and in assay [1] (1000 g/ha) were 4 (4=60-79%) and 5 (5=80-100%), respectively. The “ECHCG percentage damage caused” value in assay [2] (62.5 g/ha) and in assay [2] (1000 g/ha) was 5 (5=80-100%) each time. In addition, the “SETFA percentage damage caused” value in the assay on Setaria faberi (SETFA) (62.5 g/ha) and in the assay on Setaria faberi (SETFA) (1000 g/ha) was 5 (5=80-100%) in each case. In addition, the “IPOHE percentage damage caused” value in assay [3] (62.5 g/ha) and in assay [3] (1000 g/ha) was 5 (5=80-100%) in each case. Further, the “LOLPE percentage damage caused” value in the assay on Lolium perenne (LOLPE) (62.5 g/ha) is reported as 4 (4=60-79%); with Lolium perenne (LOLPE) (1000 g/ha), 5 (5=80-100%). The “SOLNI percentage damage caused” value with Solanum nigrum (SOLNI) (62.5 g/ha) and in the assay with Solanum nigrum (SOLNI) (1000 g/ha) was 5 (5=80-100%) throughout.
As for `Cc1nc(COc2c(Cl)ccc(Cl)c2-c2c(O)c(C)nn(C)c2=O)cs1` [Compound 1.12], the results for the “AMARE percentage damage caused” value in assay [1] (62.5 g/ha) and in assay [1] (1000 g/ha) were 3 (3=40-59%) and 5 (5=80-100%), respectively. The results for the “ECHCG percentage damage caused” value in assay [2] (62.5 g/ha) and in assay [2] (1000 g/ha) were 2 (2=20-39%) and 4 (4=60-79%), respectively. Also, the “SETFA percentage damage caused” value in the assay with Setaria faberi (SETFA) (62.5 g/ha) is listed as 2 (2=20-39%); in the assay on Setaria faberi (SETFA) (1000 g/ha), 5 (5=80-100%). The “IPOHE percentage damage caused” value is 4 (4=60-79%) in assay [3] (62.5 g/ha) and 5 (5=80-100%) in assay [3] (1000 g/ha). For the same compound, the “LOLPE percentage damage caused” value in the assay on Lolium perenne (LOLPE) (62.5 g/ha) is given as 1 (1=0-19%); in the assay on Lolium perenne (LOLPE) (1000 g/ha), 4 (4=60-79%). Moreover, the “SOLNI percentage damage caused” value with Solanum nigrum (SOLNI) (62.5 g/ha) was 3 (3=40-59%); in the assay with Solanum nigrum (SOLNI) (1000 g/ha), 5 (5=80-100%).
In the case of `Cc1csc(COc2c(Cl)ccc(Cl)c2-c2c(O)c(C)nn(C)c2=O)n1` [Compound 1.13], the figures for the “AMARE percentage damage caused” value in assay [1] (62.5 g/ha) and in assay [1] (1000 g/ha) were 3 (3=40-59%) and 4 (4=60-79%), respectively. The “ECHCG percentage damage caused” value in assay [2] (62.5 g/ha) was 3 (3=40-59%); in assay [2] (1000 g/ha), 5 (5=80-100%). Besides, the “SETFA percentage damage caused” value is given as 4 (4=60-79%) in the assay on Setaria faberi (SETFA) (62.5 g/ha) and 5 (5=80-100%) in the assay on Setaria faberi (SETFA) (1000 g/ha). Besides, the “IPOHE percentage damage caused” value in assay [3] (62.5 g/ha) is reported as 4 (4=60-79%); in assay [3] (1000 g/ha), 5 (5=80-100%). The “LOLPE percentage damage caused” value in the assay on Lolium perenne (LOLPE) (62.5 g/ha) is listed as 2 (2=20-39%); in the assay on Lolium perenne (LOLPE) (1000 g/ha), 4 (4=60-79%). Besides, the results for the “SOLNI percentage damage caused” value with Solanum nigrum (SOLNI) (62.5 g/ha) and with Solanum nigrum (SOLNI) (1000 g/ha) were 4 (4=60-79%) and 5 (5=80-100%), respectively.
Consider `Cc1nn(C)c(=O)c(-c2c(Cl)ccc(Cl)c2OCc2ccnc(Cl)c2)c1O` [Compound 1.14], for which the “AMARE percentage damage caused” value in assay [1] (62.5 g/ha) and in assay [1] (1000 g/ha) was 5 (5=80-100%) throughout. For the same compound, the results for the “ECHCG percentage damage caused” value in assay [2] (62.5 g/ha) and in assay [2] (1000 g/ha) were 4 (4=60-79%) and 5 (5=80-100%), respectively. For the same compound, the “SETFA percentage damage caused” value in the assay with Setaria faberi (SETFA) (62.5 g/ha) was 4 (4=60-79%); in the assay with Setaria faberi (SETFA) (1000 g/ha) it was 5 (5=80-100%). Also, the “IPOHE percentage damage caused” value in assay [3] (62.5 g/ha) and in assay [3] (1000 g/ha) was 5 (5=80-100%) in each case. The figures for the “LOLPE percentage damage caused” value in the assay on Lolium perenne (LOLPE) (62.5 g/ha) and in the assay on Lolium perenne (LOLPE) (1000 g/ha) were 3 (3=40-59%) and 5 (5=80-100%), respectively. Also, the “SOLNI percentage damage caused” value in the assay with Solanum nigrum (SOLNI) (62.5 g/ha) is on record as 4 (4=60-79%); in the assay with Solanum nigrum (SOLNI) (1000 g/ha), 5 (5=80-100%).
